Patent US8067454B2, “Thio-substituted Anthra [1, 2-d] imidazole- 6, 11-dione derivatives, preparation method and application thereof” (National Defense Medical Center, priority 2010, dated 2011)

Assays:
GBM8401 = assay: MTT assay, GBM8401 tumor cell; settings: for Cell survival rate (%) GBM8401: concentration 10 μM, tumor cell; for inhibitory effect against tumor cell GBM8401: survival rate less than 80%
GBM8901 = assay: MTT assay, GBM8901 tumor cell; settings: for Cell survival rate (%) GBM8901: concentration 10 μM, tumor cell
SVG p12 = assay: MTT assay, SVG p12 normal cell; settings: for Cell survival rate (%) SVG p12: concentration 10 μM, normal cell
[1] = test system: SVG p12, GBM8401 and GBM8901; assay: MTT assay, normal cell versus tumor cells (categories 39-3 to 39-7); settings: tumor cell survival rate less than 80%; for category 39-5: survival rate higher than 80% for normal cell SVG p12 and only inhibits growth of tumor cell GBM8901: FIG. 5C; for category 39-3: survival rate higher than 80% for normal cell SVG p12 and inhibits growth of both tumor cells GBM8401 and GBM8901: FIG. 5A
[2] = test system: telomerase (total cell lysates of lung cancer cell line H1299); assay: Telomeric Repeat Amplification Protocol (TRAP) assay, screen of telomerase inhibitors; type: biochemical, human; settings: 10 μM
Experimental: Telomeric Repeat Amplification Protocol (TRAP) Assay:
Telomerase activity was detected by a modified version of the general TRAP protocol. Telomerase products were resolved by 10% polyacrylamide gel electrophoresis and visualized by staining with SYBER Green. As a source of telomerase, the total cell lysates derived from lung cancer cell line H1299 cells were used. Protein concentration of the lysates was assayed using Bio-Rad protein assay kit using BSA standards.
In the TRAP assay, if a compound can stabilize the G-quadruplex structure such that telomerase can not act on telomere, then the effect of inhibiting the telomerase can be achieved. In the FIG. 2A to FIG. 2C, DMSO treatment represents as the positive control group (P); while a negative control group (N) used 5 μl of 0.1 mg/ml RNase A (CLONTECH) in the assay. It could be observed that a number of telomeric fragments were detected in the positive control group (P), while none was detected in the negative control group (N). 10 μM was selected as the concentration used to screen compounds.

SMILES | Cell survival rate (%) GBM8401 (GBM8401) [%] | Cell survival rate (%) GBM8901 (GBM8901) [%] | Cell survival rate (%) SVG p12 (SVG p12) [%] | category 39-5: survival rate higher than 80% for normal cell SVG p12 and only inhibits growth of tumor cell GBM8901 [1] | inhibition effect against telomerase [2] | category 39-3: survival rate higher than 80% for normal cell SVG p12 and inhibits growth of both tumor cells GBM8401 and GBM8901 [1] | inhibitory effect against tumor cell GBM8401 (GBM8401) | inhibitory effect against tumor cell GBM8901 (GBM8901; survival rate less than 80%) | without cell toxicity for normal cell SVGP p12 (SVG p12; survival rate higher than 80%) | category 39-4: survival rate higher than 80% for normal cell SVG p12 and only inhibits growth of tumor cell GBM8401 ([1]; FIG. 5B)
O=C1c2ccccc2C(=O)c2c1ccc1nc(SCCN3CCOCC3)[nH]c21 [f1-13, 2-(2-morpholinoethylthio)-1H-anthra[1,2-d]imidazole-6,11-dione] | 38 ± 9 | 68 ± 2 | 62 ± 8 |  |  |  |  |  |  | 
Cc1ccccc1CSc1nc2ccc3c(c2[nH]1)C(=O)c1ccccc1C3=O [f1-4, 2-(2-Methylbenzylthio)-1H-anthra[1,2-d]imidazole-6,11-dione] | 25 ± 10 | 18 ± 8 | 58 ± 5 |  |  |  |  |  |  | 
O=C(CCc1ccccc1)Sc1nc2ccc3c(c2[nH]1)C(=O)c1ccccc1C3=O [f2-4, S-6,11-dioxo-6,11-dihydro-1H-anthra[1,2-d]imidazol-2-yl 3-phenylpropanethioate] | 62 ± 15 | 72 ± 6 | 61 ± 2 |  |  |  |  |  |  | 
O=C1c2ccccc2C(=O)c2c1ccc1nc(SCCC(=O)N3CCCC3)[nH]c21 [f1-22, 2-(3-oxo-3-(pyrrolidin-1-yl)propylthio)-1H-anthra[1,2-d]imidazole-6,11-dione] | 40 ± 15 | 28 ± 2 | 80 ± 3 | in this category |  |  |  |  |  | 
O=C1c2ccccc2C(=O)c2c1ccc1nc(SCCN3CCCCC3)[nH]c21 [f1-12, 2-(2-(Piperidin-1-yl)ethylthio)-1H-anthra[1,2-d]imidazole-6,11-dione] | 6 ± 13 | 42 ± 8 | 22 ± 8 |  | exhibited inhibition effect against telomerase |  |  |  |  | 
O=C1c2ccccc2C(=O)c2c1ccc1nc(SCCCCCCCl)[nH]c21 [f1-10, 2-(6-Chlorohexylthio)-1H-anthra[1,2-d]imidazole-6,11-dione] | 78 ± 5 | 60 ± 2 | 81 ± 1 |  |  | in this category |  |  |  | 
CCN(CC)C(=O)Sc1nc2ccc3c(c2[nH]1)C(=O)c1ccccc1C3=O [f2-9, S-6,11-dioxo-6,11-dihydro-1H-anthra[1,2-d]imidazol-2-yl diethylcarbamothioate] | 46 ± 13 | 50 ± 0 | 90 ± 8 |  |  | in this category | exhibited inhibitory effect against tumor cell GBM8401 | exhibited inhibitory effect against tumor cell GBM8901 |  | 
CN1CCN(C(=O)Sc2nc3ccc4c(c3[nH]2)C(=O)c2ccccc2C4=O)CC1 [f2-3, S-6,11-dioxo-6,11-dihydro-1H-anthra[1,2-d]imidazol-2-yl 4-methylpiperazine-1-carbothioate] | 62 ± 11 | 38 ± 2 | 62 ± 3 |  | exhibited inhibition effect against telomerase |  |  |  |  | 
COC(=O)/C=C/CSc1nc2ccc3c(c2[nH]1)C(=O)c1ccccc1C3=O [f1-6, (E)-methyl 4-(6,11-dioxo-6,11-dihydro-1H-anthra[1,2-d]imidazol-2-ylthio)but-2-enoate] | 82 ± 7 | 44 ± 5 | 90 ± 6 | in this category |  |  |  |  |  | 
CCCN(CCC)C(=O)CSc1nc2ccc3c(c2[nH]1)C(=O)c1ccccc1C3=O [f1-23, 2-(6,11-dioxo-6,11-dihydro-1H-anthra[1,2-d]imidazol-2-ylthio)-N,N-dipropylacetamide] | 82 ± 15 | 18 ± 0 | 80 ± 7 | in this category |  |  |  |  |  | 
O=C1c2ccccc2C(=O)c2c1ccc1nc(SC(=O)N3CCCCC3)[nH]c21 [f2-8, S-6,11-dioxo-6,11-dihydro-1H-anthra[1,2-d]imidazol-2-yl piperidine-1-carbothioate] | 99 ± 25 | 100 ± 0 | 92 ± 3 |  |  |  |  |  |  | 
COC(=O)CCCSc1nc2ccc3c(c2[nH]1)C(=O)c1ccccc1C3=O [f1-5, Methyl-(6,11-dioxo-6,11-dihydro-1H-anthra[1,2-d]imidazol-2-ylthio)butanoate] | 70 ± 10 | 80 ± 2 | 92 ± 5 |  |  |  |  |  |  | 
O=C1c2ccccc2C(=O)c2c1ccc1nc(SCCCCCl)[nH]c21 [f1-8, 2-(4-Chlorobutylthio)-1H-anthra[1,2-d]imidazole-6,11-dione] | 43 ± 10 | 65 ± 10 | 66 ± 3 |  |  |  |  |  |  | 
O=C(Sc1nc2ccc3c(c2[nH]1)C(=O)c1ccccc1C3=O)c1cc(C(F)(F)F)ccc1C(F)(F)F [f2-5, S-6,11-dioxo-6,11-dihydro-1H-anthra[1,2-d]imidazol-2-yl 2,5-bis(trifluoromethyl)benzothioate] | 40 ± 13 | 68 ± 6 | 82 ± 1 |  |  | in this category |  |  |  | 
O=C1c2ccccc2C(=O)c2c1ccc1nc(SCC(=O)N3CCOCC3)[nH]c21 [f1-16, 2-(2-morpholino-2-oxoethylthio)-1H-anthra[1,2-d]imidazole-6,11-dione] | 30 ± 9 | 39 ± 2 | 60 ± 1 |  |  |  |  |  |  | 
O=C1c2ccccc2C(=O)c2c1ccc1nc(SC(=O)N3CCCC3)[nH]c21 [f2-7, S-6,11-dioxo-6,11-dihydro-1H-anthra[1,2-d]imidazol-2-yl pyrrolidine-1-carbothioate] | 72 ± 18 | 42 ± 7 | 62 ± 5 |  |  |  | exhibited inhibitory effect against tumor cell GBM8401 |  |  | 
O=C1c2ccccc2C(=O)c2c1ccc1nc(SCCCN3CCCCC3)[nH]c21 [f1-14, 2-(3-(piperidin-1-yl)propylthio)-1H-anthra[1,2-d]imidazole-6,11-dione] | 6 ± 10 | 10 ± 2 | 12 ± 1 |  |  |  |  |  |  | 
O=C1c2ccccc2C(=O)c2c1ccc1nc(SCCC(=O)N3CCOCC3)[nH]c21 [f1-17, 2-(3-morpholino-3-oxopropylthio)-1H-anthra[1,2-d]imidazole-6,11-dione] | 23 ± 10 | 48 ± 1 | 80 ± 0 |  |  |  |  |  | without cell toxicity for normal cell SVGP p12 | in this category
C#CCSc1nc2ccc3c(c2[nH]1)C(=O)c1ccccc1C3=O [f1-7, 2-(prop-2-ynylthio)-1H-anthra[1,2-d]imidazole-6,11-dione] | 38 ± 10 | 7 ± 2 | 98 ± 2 | in this category |  |  |  |  |  | 
CCCCSc1nc2ccc3c(c2[nH]1)C(=O)c1ccccc1C3=O [f1-3, 2-(Butylthio)-1H-anthra[1,2-d]imidazole-6,11-dione] | 78 ± 16 | 10 ± 4 | 98 ± 7 | in this category |  |  |  |  |  | 
CCN(CC)C(=O)CCSc1nc2ccc3c(c2[nH]1)C(=O)c1ccccc1C3=O [f1-20, 3-(6,11-dioxo-6,11-dihydro-1H-anthra[1,2-d]imidazol-2-ylthio)-N,N-diethylpropanamide] | 28 ± 11 | 30 ± 2 | 46 ± 2 |  |  |  |  |  |  | 
